Legend:
[1] = test system: mouse mesenteric arteries; experiment: Wire myography, mesenteric artery strips precontracted with high K+ (KPSS)
hTRPA1 = hTRPA1 (Homo sapiens, UniProt O75762); experiment: TRP channel panel primary screen (FLIPR Calcium 5, stable HEK line); type: cell-based; settings: 0.3-300μM; effects over the micromolar range
Protocol: (§1) ±PZQ, (R)-PZQ and (S)-PZQ were screened against a panel of 17 human TRP channels (SB Drug Discovery, Glasgow). For all hTRPs, except for TRPM5, individual channel constructs were stably expressed in HEK cell lines. TRMP5 was expressed in a stable CHO cell line. In preparation for the assays, cells were trypsinized, counted and seeded (50,000 cells/well) in black, clear-bottomed 96 well plates and incubated overnight. The following day, cells were loaded with a fluorescent indicator (FLIPR Calcium 5 Assay kit for TRPA1, TRPV1, TRPV2, TRPV3, TRPV4, TRPV5, TRPC1, TRPM2, TRPM3 and TRPM8, or a membrane potential dye (FLIPR Membrane Potential Red Assay Kit for TRPC3, TRPC4, TRPC5, TRPC6, TRPC7, TRPM4 and TRPM5) prepared according to the manufacturer’s instructions in HEPES buffered Hank’s balanced salt solution (HBSS). Dye solution (10μl) was added to appropriate wells and incubated at 37°C for 1 hour. All assays were performed at room temperature. Compounds were tested at 0.3, 1, 3, 10, 30, 100μM and 300μM in triplicate in both agonist and antagonist mode to determine EC50 and IC50 values, which were compared with reference compounds. Compounds were screened at a final DMSO concentration of 0.5%. Plates were screened using a Flexstation (Molecular Devices, FX01138), monitoring fluorescence values every ~1.52 seconds. For ‘agonist mode’ testing, 10μl of the appropriate test compound, or standard agonist, was added after 20 seconds and fluorescence monitored for 2 minutes at λex = 485nm, λem = 525nm for Ca^2+ imaging and λex = 530nm, λem = 565nm for membrane potential measurements. For ‘antagonist mode’ testing, test compounds and standard inhibitors were added to appropriate wells and incubated for 10 minutes at room temperature prior to addition of standard agonist compound.

hTRPM8 = hTRPM8 (Homo sapiens, UniProt Q7Z2W7); experiment: as above; type: cell-based; settings: 0.3-300μM; effects over the micromolar range
Chain of hTRPM8 (Q7Z2W7 whole entry): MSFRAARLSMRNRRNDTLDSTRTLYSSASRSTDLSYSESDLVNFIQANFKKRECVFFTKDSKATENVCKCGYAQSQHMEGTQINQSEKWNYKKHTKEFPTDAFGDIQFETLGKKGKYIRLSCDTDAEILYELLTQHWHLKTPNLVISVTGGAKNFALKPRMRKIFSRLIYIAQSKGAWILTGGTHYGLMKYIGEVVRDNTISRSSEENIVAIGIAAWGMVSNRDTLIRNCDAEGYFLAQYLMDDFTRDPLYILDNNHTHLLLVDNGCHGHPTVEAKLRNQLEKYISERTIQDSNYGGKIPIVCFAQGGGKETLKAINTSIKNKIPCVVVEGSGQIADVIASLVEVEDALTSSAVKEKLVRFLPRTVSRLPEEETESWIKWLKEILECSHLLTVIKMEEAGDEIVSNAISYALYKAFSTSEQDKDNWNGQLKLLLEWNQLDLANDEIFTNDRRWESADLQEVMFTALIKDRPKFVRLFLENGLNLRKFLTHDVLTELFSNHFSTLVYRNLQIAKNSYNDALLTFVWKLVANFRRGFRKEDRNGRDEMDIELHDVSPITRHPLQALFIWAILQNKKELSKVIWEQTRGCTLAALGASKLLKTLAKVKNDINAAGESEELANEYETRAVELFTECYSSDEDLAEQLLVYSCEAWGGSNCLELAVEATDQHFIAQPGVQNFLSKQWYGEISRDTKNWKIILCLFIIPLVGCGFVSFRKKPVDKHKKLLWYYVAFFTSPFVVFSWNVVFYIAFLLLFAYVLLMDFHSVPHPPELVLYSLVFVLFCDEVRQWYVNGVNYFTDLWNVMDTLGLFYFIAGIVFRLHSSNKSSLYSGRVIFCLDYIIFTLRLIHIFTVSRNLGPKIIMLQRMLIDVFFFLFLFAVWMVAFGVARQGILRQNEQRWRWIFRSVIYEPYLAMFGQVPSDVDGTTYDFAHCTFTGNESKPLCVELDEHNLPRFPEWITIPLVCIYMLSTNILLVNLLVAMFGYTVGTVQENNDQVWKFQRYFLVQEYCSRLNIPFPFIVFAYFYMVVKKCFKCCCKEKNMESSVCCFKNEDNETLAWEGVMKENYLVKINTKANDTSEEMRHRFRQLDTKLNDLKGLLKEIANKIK
Protocol: as §1

hTRPC3 = target: T1, hTRPC3 (Homo sapiens, UniProt Q13507); experiment: TRP channel panel primary screen (membrane potential dye, stable HEK line); type: cell-based; settings: 0.3-300μM; effects over the micromolar range
T1 sequence (Q13507 1-921): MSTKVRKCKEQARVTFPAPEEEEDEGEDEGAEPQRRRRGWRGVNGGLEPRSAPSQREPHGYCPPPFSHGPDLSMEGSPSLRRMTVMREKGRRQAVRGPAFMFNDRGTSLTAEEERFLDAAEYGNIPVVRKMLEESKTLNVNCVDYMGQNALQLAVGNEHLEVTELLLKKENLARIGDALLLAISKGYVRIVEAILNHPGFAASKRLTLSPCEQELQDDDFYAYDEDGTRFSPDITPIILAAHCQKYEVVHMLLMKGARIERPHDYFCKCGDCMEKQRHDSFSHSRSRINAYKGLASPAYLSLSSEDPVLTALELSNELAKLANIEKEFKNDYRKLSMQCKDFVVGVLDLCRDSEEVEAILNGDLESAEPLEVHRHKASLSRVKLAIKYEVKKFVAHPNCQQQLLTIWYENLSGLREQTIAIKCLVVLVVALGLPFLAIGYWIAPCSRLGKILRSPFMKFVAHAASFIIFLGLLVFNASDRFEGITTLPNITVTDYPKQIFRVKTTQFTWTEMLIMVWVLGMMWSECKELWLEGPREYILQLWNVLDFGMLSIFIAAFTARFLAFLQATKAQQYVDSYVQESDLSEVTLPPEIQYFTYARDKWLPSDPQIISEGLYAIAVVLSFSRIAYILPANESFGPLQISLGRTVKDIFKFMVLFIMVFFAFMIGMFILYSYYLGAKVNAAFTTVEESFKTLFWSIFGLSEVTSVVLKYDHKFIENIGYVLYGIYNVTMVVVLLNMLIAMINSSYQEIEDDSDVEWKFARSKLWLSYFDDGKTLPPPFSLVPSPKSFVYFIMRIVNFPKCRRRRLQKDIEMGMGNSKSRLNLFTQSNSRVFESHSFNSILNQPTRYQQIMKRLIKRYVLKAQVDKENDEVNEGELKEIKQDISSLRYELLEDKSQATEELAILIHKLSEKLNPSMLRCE
Protocol: as §1

hTRPC7 = target: T2, hTRPC7 (Homo sapiens, UniProt Q9HCX4); experiment: as above; type: cell-based; settings: 0.3-300μM; effects over the micromolar range
T2 sequence (Q9HCX4 1-862): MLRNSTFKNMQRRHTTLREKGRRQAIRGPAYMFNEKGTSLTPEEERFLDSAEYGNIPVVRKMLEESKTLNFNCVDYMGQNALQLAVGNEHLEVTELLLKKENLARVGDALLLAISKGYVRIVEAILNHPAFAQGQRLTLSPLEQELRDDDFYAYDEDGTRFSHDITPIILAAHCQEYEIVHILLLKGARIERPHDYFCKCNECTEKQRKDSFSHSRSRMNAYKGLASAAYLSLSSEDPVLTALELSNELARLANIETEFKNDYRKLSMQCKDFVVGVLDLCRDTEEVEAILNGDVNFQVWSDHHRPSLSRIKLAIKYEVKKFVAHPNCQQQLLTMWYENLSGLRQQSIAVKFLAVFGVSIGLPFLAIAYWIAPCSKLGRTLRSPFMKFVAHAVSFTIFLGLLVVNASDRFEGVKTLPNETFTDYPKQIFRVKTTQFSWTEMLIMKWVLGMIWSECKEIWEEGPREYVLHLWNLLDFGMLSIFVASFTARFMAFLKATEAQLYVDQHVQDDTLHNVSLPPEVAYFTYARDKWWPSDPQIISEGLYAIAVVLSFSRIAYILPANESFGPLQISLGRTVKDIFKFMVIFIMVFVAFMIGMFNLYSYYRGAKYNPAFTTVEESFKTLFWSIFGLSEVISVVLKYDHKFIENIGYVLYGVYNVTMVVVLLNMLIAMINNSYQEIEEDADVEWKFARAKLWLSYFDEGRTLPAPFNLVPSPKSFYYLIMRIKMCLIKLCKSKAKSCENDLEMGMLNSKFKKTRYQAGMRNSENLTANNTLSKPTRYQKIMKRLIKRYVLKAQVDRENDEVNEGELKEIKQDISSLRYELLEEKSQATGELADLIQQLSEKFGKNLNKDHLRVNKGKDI
Protocol: as §1

Chain of hTRPA1 (O75762 whole entry): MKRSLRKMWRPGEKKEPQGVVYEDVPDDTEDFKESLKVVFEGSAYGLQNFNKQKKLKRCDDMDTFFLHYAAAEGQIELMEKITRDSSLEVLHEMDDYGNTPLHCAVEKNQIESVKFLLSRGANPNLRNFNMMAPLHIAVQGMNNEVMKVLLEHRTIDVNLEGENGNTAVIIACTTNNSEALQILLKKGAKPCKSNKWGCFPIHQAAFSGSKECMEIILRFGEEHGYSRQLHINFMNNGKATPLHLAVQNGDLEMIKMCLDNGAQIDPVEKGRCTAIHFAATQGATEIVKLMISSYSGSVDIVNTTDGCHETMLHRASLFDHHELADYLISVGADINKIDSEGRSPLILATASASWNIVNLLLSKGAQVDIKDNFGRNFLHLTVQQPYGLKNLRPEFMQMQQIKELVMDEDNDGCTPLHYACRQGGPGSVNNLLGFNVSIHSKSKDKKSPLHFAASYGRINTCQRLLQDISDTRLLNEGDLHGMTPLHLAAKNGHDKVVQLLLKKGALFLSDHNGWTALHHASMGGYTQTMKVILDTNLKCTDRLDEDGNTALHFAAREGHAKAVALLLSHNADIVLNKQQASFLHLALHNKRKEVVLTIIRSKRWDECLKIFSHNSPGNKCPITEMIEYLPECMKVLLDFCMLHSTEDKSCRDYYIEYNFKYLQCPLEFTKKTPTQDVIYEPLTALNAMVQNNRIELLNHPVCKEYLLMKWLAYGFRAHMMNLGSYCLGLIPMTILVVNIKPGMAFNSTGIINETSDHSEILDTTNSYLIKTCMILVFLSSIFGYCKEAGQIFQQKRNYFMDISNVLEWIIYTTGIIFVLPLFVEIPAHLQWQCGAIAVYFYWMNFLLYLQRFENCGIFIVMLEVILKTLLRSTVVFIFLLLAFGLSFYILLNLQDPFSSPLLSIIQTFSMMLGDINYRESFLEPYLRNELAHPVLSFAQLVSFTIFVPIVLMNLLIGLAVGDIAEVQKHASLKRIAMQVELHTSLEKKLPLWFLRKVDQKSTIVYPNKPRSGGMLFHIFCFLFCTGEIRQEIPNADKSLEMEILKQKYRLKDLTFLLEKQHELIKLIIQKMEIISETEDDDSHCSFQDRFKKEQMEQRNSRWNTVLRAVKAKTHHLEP

Row | activity at hTRPA1 in primary screen (hTRPA1) | activity at hTRPM8 in primary screen (hTRPM8) | activity at hTRPC3 in primary screen (hTRPC3) | activity at hTRPC7 in primary screen (hTRPC7) | Structure (SMILES) | change in tension of KPSS-precontracted vessels ([1]; 50μM, bath application during KPSS-evoked contraction) | extent of relaxation ([1]; WT tissue, 50μM) | relaxation of the KPSS-contracted vessel ([1]; 100μM, peak relaxation)
1 | activated | sole active enantiomer | activated | activated | O=C(C1CCCCC1)N1CC(=O)N2CCc3ccccc3[C@H]2C1 [(S)-PZQ] | decrease in tension | ~ 30 % of peak KPSS-evoked tone | –
2 | displayed activity | displayed activity | displayed activity | displayed activity | O=C(C1CCCCC1)N1CC(=O)N2CCc3ccccc3C2C1 (racemic) [±PZQ, praziquantel] | – | – | 61±9%

Reference: publication PMC5927461, “Activation of host transient receptor potential (TRP) channels by praziquantel stereoisomers” (PLoS Neglected Tropical Diseases, 2018)
